Tests used:
[1] = test system: Human immunodeficiency virus 1; assay: Antiviral activity against HIV1 infected in GFP expressing human MT4 cells assessed as inhibition of viral replication after 24 hrs in presence of 50% normal human serum; type: functional, organism-based; conditions: Human immunodeficiency virus 1, MT4, 24 h
[2] = test system: Human immunodeficiency virus 1; assay: Potency index, ratio of MK-8718 EC50 to test compound EC50 for HIV1 infected in GFP expressing human MT4 cells assessed as inhibition of viral replication; type: functional
[3] = target: Protease (Human immunodeficiency virus 1) (UniProt Q9YQ12); assay: Potency index, ratio of MK-8718 IC50 to test compound IC50 for HIV1 protease
Protease = Protease (Human immunodeficiency virus 1, UniProt Q9YQ12); assay: Inhibition of HIV1 protease expressed in Escherichia coli using Val-Ser-Gln-Asn-(beta-naphtyl)Ala-Pro-Ile-Val as substrate preincubated for 30 mins followed by substrate addition measured after 1 hr by mass spectrometric method
Protease, sequence (Q9YQ12 whole entry): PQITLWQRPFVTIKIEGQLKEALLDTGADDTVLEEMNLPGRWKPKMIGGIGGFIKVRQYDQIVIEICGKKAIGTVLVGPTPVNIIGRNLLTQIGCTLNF

Protease (Human immunodeficiency virus 1), sequence (Q9YQ12 as listed by the source): as the sequence (Q9YQ12 whole entry) above

Row | Structure (SMILES) | EC50 [1] | also measured
1 | COC(=O)N[C@H](C(=O)N[C@@H](Cc1ccccc1)[C@@H](O)CN(Cc1ccc(-c2ccccn2)cc1)NC(=O)[C@@H](NC(=O)OC)C(C)(C)C)C(C)(C)C [ATAZANAVIR] | 12 nM | –
2 | C[C@@H]1CNC[C@H](CCc2c(F)cccc2NC(=O)CC(c2ccc(F)cc2)c2ccc(F)cc2)N1S(=O)(=O)c1ccccc1 | 70 nM | –
3 | C[C@H]1CNC[C@H](CCc2c(F)cccc2NC(=O)CC(c2ccc(F)cc2)c2ccc(F)cc2)N1S(=O)(=O)c1ccccc1 | 17 nM | –
4 | N[C@H](C(=O)Nc1cncc(F)c1CC[C@H]1CN[C@@H]2CCCS(=O)(=O)N1C2)[C@@H](c1ccc(Cl)cc1)c1cc(F)cc(F)c1 | 2.8 nM | Ratio EC50 [2]: 10; Ratio IC50 [3]: 60; IC50 (Protease): 0.012 nM
5 | O=C(CC(c1ccc(F)cc1)c1ccc(F)cc1)Nc1cccc(F)c1CC[C@H]1CNCCN1S(=O)(=O)c1ccccc1 | 27 nM | –
6 | C[C@@H]1CN(S(=O)(=O)c2ccccc2)[C@@H](CCc2c(F)cccc2NC(=O)CC(c2ccc(F)cc2)c2ccc(F)cc2)CN1 | 520 nM | –
7 | O=C(CC(c1ccc(F)cc1)c1ccc(F)cc1)Nc1cccc(F)c1CC[C@@H]1CNCCN1S(=O)(=O)c1ccccc1 | 1200 nM | –
8 | C[C@H]1CN(S(=O)(=O)c2ccccc2)[C@@H](CCc2c(F)cccc2NC(=O)CC(c2ccc(F)cc2)c2ccc(F)cc2)CN1 | 700 nM | –
9 | N[C@H](C(=O)Nc1cncc(F)c1CC[C@@H]1CN[C@H](COC(=O)NCC(F)(F)F)CO1)[C@@H](c1ccc(Cl)cc1)c1cc(F)cc(F)c1 | 27 nM | IC50 (Protease): 0.7 nM
10 | O=C(CC(c1ccc(F)cc1)c1ccc(F)cc1)Nc1cccc(F)c1CC[C@H]1CN[C@@H]2CCCS(=O)(=O)N1C2 | 21 nM | –
11 | CC(C)CN(C[C@@H](O)[C@H](Cc1ccccc1)NC(=O)O[C@H]1CO[C@H]2OCC[C@H]21)S(=O)(=O)c1ccc(N)cc1 | 7 nM | –

Source: ChEMBL document CHEMBL4130597 (ACS Med Chem Lett, 2017)
